Test results reported in patent US5866576A, “Epoxide-containing compounds” (Cell Therapeutics, Inc., priority 1997, dated 1999).

Columns and labels:
[1] = test system: murine splenocytes; experiment: murine splenocyte proliferation co-stimulated by anti-mu and IL-4 (FIG. 11); type: cell-based; conditions: Mus musculus, anti-mu / IL-4 12.5 ng/ml
Experimental: This example illustrates inhibitive effects of compounds nos. 1439, 1553S, 1560 and 1565 on murine splenocyte proliferation co-stimulated by anti-mu ([…]) and interleukin-4 (IL-4, 12.5 ng/ml). This in vitro assay, described above, is indicative of immune-suppressive/autoimmune treatment assay emphasizing humoral or B cell immune response. This assays are a predictive model for treatment or prevention of autoimmune diseases, such as diabetes, lupus, arthritis, and the like. The assay measures immunosuppressive activity of a drug at the B cell level. Spleens from adult mice contain immature B cells that express surface IgM. Cross-linking the surface IgM with an anti-mu antibody results in B cell proliferation. Additionally, this activation results in an increased expression of interleukin-4 receptors(IL-4R) on the surface of such cells. IL-4 acts as a growth factor for B cells and will increase the amount of proliferation induced by anti-mu.
A mixture of anti-mu and murine IL-4 is added to murine splenocytes to cause their proliferation. Mice spleens are obtained from adult mice and a single cell suspension is prepared in RPMI 1640 medium supplemented with 10% FCS. Cells (200,000) are plated into flat-bottomed wells and pre-incubated for 1-2 hours with various concentrations of inventive compound or PBS if it is a control. A mixture of anti-mu and murine is added to the wells at a final concentration of 5 μg/ml anti-mu and 12.5 ng/ml IL-4 and plates are incubated for three days. Proliferation is determined on the third day with a pulse of tritiated thymidine. The IC50 concentration of a particular drug is the concentration of drug that results in a 50% inhibition of the proliferation obtained from the positive control.

[2] = test system: thymocytes; experiment: murine thymocyte proliferation assay co-stimulated by ConA and IL-2 (FIGS. 7A-7E); type: cell-based, Balb/C mice; conditions: Mus musculus
From the text: This example illustrates dose response curves used to generate 50% inhibition concentrations (IC50) for inventive compounds nos. 1410, 1439, 1541, 1553, 1553S, 1560, 1565, 2548R, 2548S and 2562 in a murine thymocyte proliferation assay, co-stimulated by Concanavalin A (ConA) and interleukin-2 alpha (IL-2). ConA, used to activate the T-cell receptor (TCR), along with IL-2 co-stimulation, induces T-cell proliferation and differentiation. Thymuses, obtained from normal, female Balb/C mice, were dissociated and plated into 96-well plates at a density of 2×10^5 cells/well. ConA (0.25 mg/ml) and IL-2 (15 U/ml) were added to the wells. The cells were incubated for 4 days at 37° C. On day 4, the cells were pulsed with tritiated thymidine and incubated for an additional 4 hours. The amount of tritiated thymidine incorporated by the harvested cells was determined in a liquid scintillation counter. Doses of inventive compounds (shown in FIGS. 7A-7E) were added two hours prior to ConA and IL-2 activation. Background counts were less than 200 cpm. Results obtained, illustrate the ability of the inventive compounds to inhibit thymocyte proliferation and activation. In FIG. 7A, inventive compounds nos. […] FIG. 7B presents additional data for compound no. 1410 and 1553S in this assay. […] FIG. 7C reports assay results for inventive compounds nos. 1439, 1541, 1560 and 1565. […] FIGS. 7D and 7E illustrate assay results for inventive compounds nos. 1541, 1553, 1560 and 1565 (FIG. 7D) and 2562, […] (FIG. 7E). As is true of other inventive compounds tested, all these compounds represented in FIGS. 7D and 7E inhibit thymocyte proliferation. […] 1541, 1553, 1560, 1565, 2562, 2548R and 2548S, respectively.

[3] = test system: Balb/3T3 cells; experiment: PDGF-stimulated Balb/3T3 cell proliferation; type: cell-based; conditions: FIGS. 8A (1409), 8B (1560); PDGF/BB
Experimental: Balb/3T3 cells respond vigorously to PDGF stimulation, and are useful in vitro models for further study of PDGF-induced proliferation. Disregulated PDGF-proliferative response has been linked to a variety of diseases, including, e.g., restenosis, atherosclerosis, fibrosis, and tumor cell angiogenesis.
Balb/3T3 cells were maintained in exponential growth. The cells were removed from a flask with EDTA and plated into 96 well plates at 3000 cells/well. After 48 hours, the media was removed, the cells washed once with PBS and serum free media and the cultures allowed to rest for a 24 hour period. Inventive compounds were added to the wells containing media and Balb/3T3 cells one hour prior to incubation with PDGF/BB, added at constant 10 μM concentrations along with 1 μ Ci 3-H-thymidine dye. Cells were subsequently incubated for 18-24 hours, harvested, and incorporated thymidine assessed on a Packard Topcount to determine degree of cell proliferation. Data obtained in this assay was used to determine experimental 50% inhibition concentrations for the inventive compounds tested.

[4] = test system: Balb/3T3 cells; experiment: Balb/3T3 cytotoxicity assay (BCECF-AM); type: cell-based; conditions: FIGS. 8C, 8D
Experimental: In conjuction with the Balb/3T3 proliferation assay conducted above, a Balb/3T3 cytotoxicity assay was conducted to determine that the inhibition on proliferation was not due to cytotoxic effects. This assay is similar to the assay decribed above except tritiated thymidine was not added and after 18-24 hours incubation with PDGF/BB and a lOuM solution of 2,7-bis-(2-carboxyethyl)-5(and-6)carboxyflouresceinacetoxymethyl ester (BCECF-AM) was added for 30 minutes at 37° C. (BCECF is a compound that when cleaved by esterases, yields a fluorescent product in viable cells only, therefore providing a measure of viable cell numbers). Following sufficient incubation, BCECF is replaced with PBS and the plate examined with flourescence in a Millipore "cytofluor." The data is compiled and plotted.

With `Cn1cnc2c1c(=O)n(CCCCCCCC1CO1)c(=O)n2C` (centres unmarked) [Compound 1560, 1-(8,9-Oxidononyl)-3,7-dimethylxanthine] the IC50 [1] was 29 µM, the IC50 ([2]; FIG. 7C) was 22 µM and the IC50 ([2]; FIGS. 7D and 7E) was 14 µM. For the same compound, the “inhibition of Balb/3T3 proliferation” value [3] was “inhibit Balb/3T3 proliferation” and the cytotoxic effects [4] was “without exhibiting cytotoxic effects”.
